Here are results for one compound from ChEMBL document CHEMBL1177743, “Symbiopolyol, a VCAM-1 inhibitor from a symbiotic dinoflagellate of the jellyfish Mastigias papua” (J Nat Prod, 2010).

Data set [1] concerns HUVEC. The experiment in a line: Toxicity in HUVEC up to 12 uM. Type of data set: cell-based. The settings on record: human.
Data set [2] has as its target T1, Vascular cell adhesion protein 1 (Homo sapiens) (UniProt P19320).
T1 sequence (whole entry): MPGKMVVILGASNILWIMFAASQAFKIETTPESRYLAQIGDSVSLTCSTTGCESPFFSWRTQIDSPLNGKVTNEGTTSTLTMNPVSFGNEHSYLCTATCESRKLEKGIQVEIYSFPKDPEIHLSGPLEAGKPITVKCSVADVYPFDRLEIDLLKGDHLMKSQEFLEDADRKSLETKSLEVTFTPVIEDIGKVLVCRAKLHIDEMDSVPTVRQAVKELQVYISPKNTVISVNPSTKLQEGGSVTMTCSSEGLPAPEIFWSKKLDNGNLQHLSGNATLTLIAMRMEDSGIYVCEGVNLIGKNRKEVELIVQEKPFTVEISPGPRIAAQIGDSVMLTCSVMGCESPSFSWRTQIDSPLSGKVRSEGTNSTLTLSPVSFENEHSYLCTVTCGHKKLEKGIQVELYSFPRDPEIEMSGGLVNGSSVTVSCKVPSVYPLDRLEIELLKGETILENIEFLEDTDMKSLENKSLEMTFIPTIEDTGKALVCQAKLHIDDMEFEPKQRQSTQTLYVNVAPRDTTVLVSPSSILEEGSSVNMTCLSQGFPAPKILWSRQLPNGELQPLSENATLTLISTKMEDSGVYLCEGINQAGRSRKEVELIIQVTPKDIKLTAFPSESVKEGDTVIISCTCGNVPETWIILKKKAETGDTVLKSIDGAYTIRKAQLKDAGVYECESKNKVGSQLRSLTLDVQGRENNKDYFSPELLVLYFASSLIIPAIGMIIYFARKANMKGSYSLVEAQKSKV
The data set can be described thus: Inhibition of VCAM1 in TNF-alpha/IL4-stimulated HUVEC assessed as inhibition of cell adhesion between HUVEC and Ramos cells at 8 uM after 20 hrs incubation relative to untreated control. Type of data set: cell-based.

The test system of data set [3] is HUVEC. The experiment in a line: Inhibition of VCAM1 expression in TNF-alpha-stimulated HUVEC pretreated 30 mins before TNFalpha challenge for 18 hrs by ELISA. It is filed as functional, cell-based. The following applies: Homo sapiens.

Broadly, the inhibition is the change of the read-out against control, counted positive when it falls. For orientation: IC50 means the midpoint of a concentration-inhibition curve. With `C=CCC/C=C/C=C/C=C/CC/C=C/[C@@H](O)[C@H](O)[C@@H]1O[C@@H]([C@H](O)[C@@H](O)C(=C)CC[C@@H](O)[C@H]2C[C@@H](O)[C@@H](O)[C@H]([C@@H](O)[C@H](O)/C=C(\C)CC[C@H](O)C[C@H](O)[C@H](O)C(C)C(O)C(O)C/C=C/CC(O)/C=C/CCCCCOS(=O)(=O)[O-])O2)C[C@@H](O)[C@H]1O.[Na+]` (stereo partly drawn) [SYMBIOPOLYOL], the Activity result with HUVEC [1] is on record as “Non-toxic”. Moreover, the inhibition in data set [2] came to 77%. Moreover, in the data set on HUVEC [3], the IC50 is 6.62 µM.
